Each block holds one molecule with its values, some of them ahead of it.
Tests used:
[1] = test system: Thioglycolate-elicited peritoneal macrophages; assay: Macrophage response to E. coli infection: iNOS mRNA and NO production; format: cell-based, murine; details: 18 h, pretreated with 1 μM ligand, real-time quantitative PCR
Method: Thioglycolate-elicited peritoneal macrophages were infected in vitro with Escherichia coli. After 18 hours, expression of inducible nitric oxide synthase (iNOS) mRNA and nitric oxide (NO) production were assessed. […] Cells were then infected with E. coli (A, B) or treated with 100 ng/ml LPS(C, D, E) as indicated. After 18 h, NO production was determined using a colorimetric assay (A, D), or mRNA levels were determined using real-time quantitative PCR assays (B, C, E).
Thioglycolate-elicited peritoneal macrophages were cultured in RPMI containing 10% fetal bovine serum (FBS). […] For ligand treatments, cells were in cultured medium supplemented with 5% lipoprotein-deficient serum (LPDS) and ligands for 18 h before stimulation. […] NO production was determined spectrophotometrically (Castrillo, A. et al. 2000 Mol Cell Biol 20:1692-1698).
Total RNA was extracted using Trizol reagent (Life Technologies, Inc.). […] Real-time quantitative PCR (TaqMan) analysis was performed using an Applied Biosystems 7700 sequence detector.

[2] = test system: Thioglycolate-elicited murine peritoneal macrophages; assay: LPS-stimulated macrophages: NO production, iNOS and ABCA1 mRNA; format: cell-based; details: for iNOS mRNA: 100 ng/ml LPS, 18 h, pretreated with 1 μM ligand, real-time quantitative PCR
Method: To investigate the role of LXRs in host defense, the influence of LXR agonists on macrophage responses to bacterial pathogens was tested. Thioglycolate-elicited peritoneal macrophages were infected in vitro with Escherichia coli. After 18 hours, expression of inducible nitric oxide synthase (iNOS) mRNA and nitric oxide (NO) production were assessed. […] This repression occurs over the same concentration range needed to induce the established LXR target gene ATP-binding cassette transporter A1 (ABCA1). A, LXR agonist inhibits nitrite production in response to bacterial infection. […] Cells were then infected with E. coli (A, B) or treated with 100 ng/ml LPS(C, D, E) as indicated. After 18 h, NO production was determined using a colorimetric assay (A, D), or mRNA levels were determined using real-time quantitative PCR assays (B, C, E). […] The inhibitory effect of LXR agonists on iNOS expression was dose-dependent and occurred over the same range of concentration as that required to induce ATP-binding cassette transporter A1 (ABCA1) (FIGS. 1D and E).
The anti-inflammatory activity of LXR ligands can be separated from the induction of lipid metabolism genes such as ABCA1. Murine peritoneal macrophages were treated with LPS to induce iNOS gene expression (FIG. 8A) and were assayed for ABCA1 mRNA by real time qPCR (FIG. 8B). NOx production was measured by colorimetric assay. […] The identification of LXR agonists with only anti-inflammatory activity should greatly increase the usefulness of such compounds as therapeutic agents, because they lack the unwanted side effects on lipid metabolism such as elevation of triglyceride levels.
Cell culture and transfections. Thioglycolate-elicited peritoneal macrophages were cultured in RPMI containing 10% fetal bovine serum (FBS). RAW 264.7 cells were cultured in DMEM containing 10% FBS. For ligand treatments, cells were in cultured medium supplemented with 5% lipoprotein-deficient serum (LPDS) and ligands for 18 h before stimulation. Bacterial infection in vitro was performed as described (Chen, L. M. et al. 1996 Mol Microbiol 21:1101-1115). Transient transfections of RAW 264.7 cells were performed in triplicate in 48-well plates using Superfect reagent (Life Technologies). After transfection, cells were incubated in medium containing 10% LPDS and the indicated ligands for 18 h before stimulation with LPS for an additional 18 h. Luciferase activity was normalized to β-galactosidase activity. NO production was determined spectrophotometrically (Castrillo, A. et al. 2000 Mol Cell Biol 20:1692-1698).
RNA and protein analysis. Total RNA was extracted using Trizol reagent (Life Technologies, Inc.). Northern blot analysis was carried out as described using radiolabeled cDNA probes (Tontonoz, P. et al. 1998 Cell 93:241-252). Real-time quantitative PCR (TaqMan) analysis was performed using an Applied Biosystems 7700 sequence detector. Two-step real-time PCR was performed as described (Joseph, S. B. et al. 2002 J Biol Chem 277:11019-11025). The primers and probes used are as follows: […]

[3] = test system: Thioglycolate-elicited murine peritoneal macrophages; assay: IL-1β- or TNFα-induced inflammatory gene expression in macrophages; format: cell-based; details: pretreated 18 h; IL-1β or TNFα (50 ng/ml); real-time quantitative PCR
Method: Next, the influence of LXR agonists on inflammatory gene expression induced by IL-1β and TNFα, which have been implicated in the pathogenesis of atherosclerosis, was tested. […] Gene expression was detected by real-time quantitative PCR assays. […] Total RNA was isolated from individual aortas and gene expression was measured by real-time quantitative PCR. P<0.05 for MMP-9 (*) and P<0.01 (**) for ABCA1. […] Thus, LXR agonist reduces expression of an established inflammatory mediator in the vessel wall. Cell culture and transfections. Thioglycolate-elicited peritoneal macrophages were cultured in RPMI containing 10% fetal bovine serum (FBS). RAW 264.7 cells were cultured in DMEM containing 10% FBS. For ligand treatments, cells were in cultured medium supplemented with 5% lipoprotein-deficient serum (LPDS) and ligands for 18 h before stimulation. Bacterial infection in vitro was performed as described (Chen, L. M. et al. 1996 Mol Microbiol 21:1101-1115). Transient transfections of RAW 264.7 cells were performed in triplicate in 48-well plates using Superfect reagent (Life Technologies). After transfection, cells were incubated in medium containing 10% LPDS and the indicated ligands for 18 h before stimulation with LPS for an additional 18 h. Luciferase activity was normalized to β-galactosidase activity. NO production was determined spectrophotometrically (Castrillo, A. et al. 2000 Mol Cell Biol 20:1692-1698). RNA and protein analysis. Total RNA was extracted using Trizol reagent (Life Technologies, Inc.). Northern blot analysis was carried out as described using radiolabeled cDNA probes (Tontonoz, P. et al. 1998 Cell 93:241-252). Real-time quantitative PCR (TaqMan) analysis was performed using an Applied Biosystems 7700 sequence detector. Two-step real-time PCR was performed as described (Joseph, S. B. et al. 2002 J Biol Chem 277:11019-11025). The primers and probes used are as follows: […]

[4] = test system: human aortic endothelial cells; assay: TNF-induced gene expression in human aortic endothelial cells; format: cell-based; details: TNF 6 hours; real time qPCR
Method: (§1) Activation of LXR by synthetic ligands inhibits inflammatory gene expression in multiple human cell types (FIG. 7A-C). TNFα plays a role in the induction of inflammatory mediators in during inflammation. Cells were treated for 6 hours with TNF as indicated and gene expression was measured by real time qPCR.

[5] = test system: human peripheral blood mononuclear cells; assay: TNF-induced gene expression in human peripheral blood mononuclear cells; format: cell-based; details: TNF 6 hours; real time qPCR
Method: as §1

[6] = test system: human smooth muscle cells; assay: TNF-induced gene expression in human smooth muscle cells; format: cell-based; details: TNF 6 hours; real time qPCR
Method: as §1

[7] = test system: Thioglycolate-elicited murine peritoneal macrophages; assay: Expression of NF-κB target genes in LPS-treated macrophages (northern blot, real-time quantitative PCR); format: cell-based
Method: LPS is an established inducer of the NF-κB signaling pathway in macrophages. Several genes inhibited by LXR ligands in the array studies above are established targets of NF-κB. To further investigate the role of LXRs in NF-κB-dependent gene expression, we analyzed expression of NF-κB target genes in peritoneal macrophages from wild-type mice. […] Expression of NF-κB target genes was determined by northern blot (A) or by real-time quantitative PCR assays (B). 36B4 was used as a control for RNA loading and integrity. […] RNA and protein analysis. Total RNA was extracted using Trizol reagent (Life Technologies, Inc.). Northern blot analysis was carried out as described using radiolabeled cDNA probes (Tontonoz, P. et al. 1998 Cell 93:241-252). Real-time quantitative PCR (TaqMan) analysis was performed using an Applied Biosystems 7700 sequence detector. Two-step real-time PCR was performed as described (Joseph, S. B. et al. 2002 J Biol Chem 277:11019-11025). The primers and probes used are as follows: […]

C57B1/6 mice = assay: Murine model of irritant contact dermatitis (TPA-treated ear); format: in vivo; details: topical 20 μl of 10 mM at 45 min and 4 h post-TPA; 18 h; relative to vehicle-treated ear
Method: The effects of LXR ligands in both acute and chronic inflammatory contexts were evaluated. First, the effects of LXR agonists in a murine model of irritant contact dermatitis (Sheu, M. Y. et al. 2002 J Invest Dermatol 118:94-101) were studied. Ears of C57B1/6 mice (n=5 per group) were treated topically with 12-O-tetradecanoylphorbol-13-acetate (TPA) (left ear) or with vehicle (right ear). […] Thickness and weight of 6-mm punch biopsies were determined for each group after 18 h TPA treatment and are presented relative to vehicle-treated ear. […] Analysis of hematoxylin and eosin (H&E) stained sections of the TPA-treated ears confirmed a reduction in edema and inflammatory infiltrate by LXR agonist. Thus, two structurally unrelated LXR agonists have anti-inflammatory activity in a model of cutaneous inflammation.
Animals. Mice on a mixed background (C57B1/6 and 129v) and Apoe^−/− mice on a C57B1/6 background were maintained on standard chow. […] Irritant contact dermatitis was induced as described (Sheu, M. Y. et al. 2002 J Invest Dermatol 118:94-101). Briefly, 10 μl of 0.03% 12-O-tetradecanoylphorbol-13-acetate (TPA) in acetone was applied to the left ears of male mice. The right ears were treated with vehicle alone. […] After 18 h of TPA treatment, the thickness and weight of 6-mm punch biopsies were determined. Statistical analysis was performed using Student's t-test. Experiments were conducted in accordance of the Animal Research Committee of the University of California, Los Angeles.

Molecule: Cc1cc(SCc2sc(-c3ccc(C(F)(F)F)cc3)nc2C)ccc1OCC(=O)O [GW1516]
iNOS mRNA [1]: minimal effects
iNOS mRNA [2]: minimal effects

receptor-independent induction of IL-6 [7]: modest receptor-independent induction
receptor-independent induction of MCP-1 [7]: modest receptor-independent induction
Molecule: O=S(=O)(c1ccccc1)N(CC(F)(F)F)c1ccc(C(O)(C(F)(F)F)C(F)(F)F)cc1 [T1317, N-(2,2,2-trifluoro-ethyl)-N-[4-(2,2,2-trifluoro-1-hydroxy-1-trifluoromethyl-ethyl)-phenyl]-benzenesulfonamide]
induction of IL-6 expression [3]: inhibit
induction of iNOS expression [3]: inhibit
TNF-induced gene expression [4]: inhibited
activation of ABCA1 gene expression, T1317 compared with GW3965 ([2]; increasing doses, real time qPCR, FIG. 8B): more effective activator
TNF-induced gene expression [5]: inhibited
TNF-induced gene expression [6]: inhibited
ear thickness (C57B1/6 mice): reduced
ear weight (6-mm punch biopsies) (C57B1/6 mice): reduced

Molecule: GW7647
iNOS mRNA [1]: minimal effects
iNOS mRNA [2]: minimal effects
